Data reported in patent publication US20240109853A1 (Shanghai Yao Yuan Biotechnology Co., Ltd., priority 2020, published 2024).
Where two headings read alike, the source gives them in different places.

Molecular target: ALPK1 (Homo sapiens (Human), UniProt Q96QP1)
Test: ALPK1 in vitro kinase assay (HTRF of TIFA phosphorylation)
Format: biochemical
Excerpt: In embodiments, a compound of Formula I, or a subembodiment described herein, is an inhibitor of ALPK1 as measured, for example, in an in vitro kinase assay, or an assay designed to measure the activation of downstream targets of ALPK1 pathway activation, for example NFkB transcriptional activation and the secretion of proinflammatory cytokines and chemokines, such as IL-8, which is also referred to as CXCL-8. In general, the computer program XL fit was used for data analysis, including non-linear regression analysis. The half maximal inhibitory concentration (IC50) was used as the measure of a compound's effectiveness in the assays. IC50 values were determined using the following logistic equation Y=min+(max−min)/(1+(X/IC50^−hillslpoe), where Y is the value at the compound concentration, X. The concentration response curve fitting was conducted using GraphPad Prism version 6.00 software.
ALPK1 kinase activity was measured in an in vitro assay using ADP-Heptose as the ALPK1 ligand and activator of its kinase activity and TIFA protein as the ALPK1 phosphorylation substrate. Since phosphorylated TIFA proteins oligomerize, Homogeneous Time-Resolved Fluorescence (HTRF) was used to measure protein:protein interaction between HA-tagged TIFA proteins as an indicator of TIFA phosphorylation.
In brief, dose-response studies were performed with HEK293 cells cultured in Dulbecco's Modified Eagle Medium (DMEM) supplemented 10% fetal bovine serum (FBS, Hyclone™) containing antibiotics (pen/strep, G418) in 384-well assay plates. Each well contained 0.1 mg TIFA, ALPK1 (2 nM final concentration in reaction mixture) and kinase buffer (100 mM of HEPES pH 7.4, 4 mM DTT, 40 mM MgCl2, 20 mM of β-Glycerol phosphate disodium salt, 0.4 mM of Na3VO4, 0.16 mg/mL). Titrations of the test compounds were prepared in dimethylsulphoxide (DMSO). The reaction was initiated by addition of ATP and ADP-Heptose.
For HTRF, samples were incubated with a Tb cryptate-labeled anti-HA antibody for capturing HA-tagged proteins according to the manufacturer's instructions (PerkinElmer™, CisBio™) and the fluorescence signal was quantified (Tecan Infinite F NANO+). HTRF signals were calculated as the HTRF ratio (ratio of fluorescence measured at 665 nm and 620 nm)×104 (thereby using the signal at 620 nm as an internal standard).
IC50 values were determined using 3- or 4-parameter logistic equation using GraphPad Prism version 6.00. The reference compound, A027, was used as a positive control for each plate.

[1] = ALPK1 2 nM, TIFA substrate, ADP-Heptose activator, HTRF readout

Chain of ALPK1 (Q96QP1 whole entry): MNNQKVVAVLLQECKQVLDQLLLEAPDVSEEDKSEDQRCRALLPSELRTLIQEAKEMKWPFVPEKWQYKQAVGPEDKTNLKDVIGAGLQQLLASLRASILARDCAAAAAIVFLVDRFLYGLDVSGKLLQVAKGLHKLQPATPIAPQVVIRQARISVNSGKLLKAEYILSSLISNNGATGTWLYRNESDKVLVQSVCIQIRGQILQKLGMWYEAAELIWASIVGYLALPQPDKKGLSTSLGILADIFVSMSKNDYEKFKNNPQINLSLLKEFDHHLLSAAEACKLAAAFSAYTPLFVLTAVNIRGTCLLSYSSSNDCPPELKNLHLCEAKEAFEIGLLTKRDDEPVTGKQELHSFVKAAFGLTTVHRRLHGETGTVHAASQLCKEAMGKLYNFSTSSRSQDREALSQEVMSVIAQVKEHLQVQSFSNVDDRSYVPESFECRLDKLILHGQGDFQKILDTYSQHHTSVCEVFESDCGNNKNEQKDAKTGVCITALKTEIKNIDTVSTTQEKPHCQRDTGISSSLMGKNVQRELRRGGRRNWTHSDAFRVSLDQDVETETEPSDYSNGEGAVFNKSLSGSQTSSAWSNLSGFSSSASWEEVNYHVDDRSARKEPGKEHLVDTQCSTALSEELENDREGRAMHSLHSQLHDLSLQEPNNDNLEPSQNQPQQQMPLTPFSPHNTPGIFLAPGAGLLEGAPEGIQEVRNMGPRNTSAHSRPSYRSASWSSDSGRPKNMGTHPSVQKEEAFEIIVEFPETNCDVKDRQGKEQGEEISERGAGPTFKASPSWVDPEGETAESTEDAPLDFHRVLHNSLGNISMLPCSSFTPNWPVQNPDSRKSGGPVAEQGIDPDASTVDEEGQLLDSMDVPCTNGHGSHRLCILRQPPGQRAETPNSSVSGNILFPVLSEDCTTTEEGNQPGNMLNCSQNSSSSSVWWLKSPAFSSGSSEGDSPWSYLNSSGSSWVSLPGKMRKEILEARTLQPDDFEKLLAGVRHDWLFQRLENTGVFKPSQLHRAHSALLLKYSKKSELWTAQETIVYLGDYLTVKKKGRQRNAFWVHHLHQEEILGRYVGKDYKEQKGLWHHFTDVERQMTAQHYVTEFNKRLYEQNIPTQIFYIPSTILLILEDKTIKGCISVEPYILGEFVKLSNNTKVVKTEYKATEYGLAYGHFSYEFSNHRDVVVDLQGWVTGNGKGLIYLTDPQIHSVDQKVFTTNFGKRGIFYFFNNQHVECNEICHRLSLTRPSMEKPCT

## C#C[C@@](C)(c1ccc(F)cc1)c1csc(NC(=O)c2c(F)cc(N3CCC(N)C3)cc2F)n1 (stereo in doubt) [Example B090, 4-(3-aminopyrrolidin-1-yl)-2,6-difluoro-N-(4-(2-(4-fluorophenyl)but-3-yn-2-yl)thiazol-2-yl)benzamide]
[1]
  IC50: 107 nM

## C#C[C@@](C)(c1ccc(F)cc1)c1csc(NC(=O)c2c(F)cc(N3CCC(N)C3)cc2F)n1 (stereo in doubt) [Example B091, 4-(3-aminopyrrolidin-1-yl)-2,6-difluoro-N-(4-(2-(4-fluorophenyl)but-3-yn-2-yl)thiazol-2-yl)benzamide]
[1]
  IC50: 65 nM

## C#C[C@@](C)(c1ccc(Cl)cc1)c1csc(NC(=O)c2c(F)cc(N3CCNCC3CO)cc2F)n1 (stereo in doubt) [Example B097, N-[4-[1-(4-chlorophenyl)-1-methyl-prop-2-ynyl]thiazol-2-yl]-2,6-difluoro-4-[2-(hydroxymethyl)piperazin-1-yl]benzamide]
[1]
  IC50: 119 nM

## C#C[C@](C)(c1ccc(Cl)cc1)c1csc(NC(=O)c2c(F)cc(N3CCNCC3CO)cc2F)n1 (stereo in doubt) [Example B098, N-[4-[1-(4-chlorophenyl)-1-methyl-prop-2-ynyl]thiazol-2-yl]-2,6-difluoro-4-[2-(hydroxymethyl)piperazin-1-yl]benzamide]
[1]
  IC50: 20 nM

## C#C[C@@](C)(c1ccc(OC)cc1)c1csc(NC(=O)c2c(F)cc(N3CCNCC3)cc2F)n1 (stereo in doubt) [Example C036, 2,6-difluoro-N-[4-[1-(4-methoxyphenyl)-1-methyl-prop-2-ynyl]thiazol-2-yl]-4-piperazin-1-yl-benzamide]
[1]
  IC50: 67 nM

## C#C[C@@](C)(c1csc(NC(=O)c2c(F)cc(N3CCNCC3)cc2F)n1)c1ccc(Cl)cc1F (stereo in doubt) [Example C043, N-(4-(2-(4-chloro-2-fluorophenyl)but-3-yn-2-yl)thiazol-2-yl)-2,6-difluoro-4-(piperazin-1-yl)benzamide]
[1]
  IC50: 285 nM

## C#C[C@](C)(c1csc(NC(=O)c2c(F)cc(N3CCNCC3)cc2F)n1)c1ccc(Cl)cc1F (stereo in doubt) [Example C044, N-(4-(2-(4-chloro-2-fluorophenyl)but-3-yn-2-yl)thiazol-2-yl)-2,6-difluoro-4-(piperazin-1-yl)benzamide]
[1]
  IC50: 25 nM

## C#C[C@](C)(c1ccc(Cl)cc1)c1nc(NC(=O)c2c(F)cc(N3CCNCC3)cc2F)sc1Cl (stereo in doubt) [Example C049, N-(5-chloro-4-(2-(4-chlorophenyl)but-3-yn-2-yl)thiazol-2-yl)-2,6-difluoro-4-(piperazin-1-yl)benzamide]
[1]
  IC50: 4520 nM

## C#C[C@@](C)(c1ccc(Cl)cc1)c1nc(NC(=O)c2c(F)cc(N3CCNCC3)cc2F)sc1Cl (stereo in doubt) [Example C050, N-(5-chloro-4-(2-(4-chlorophenyl)but-3-yn-2-yl)thiazol-2-yl)-2,6-difluoro-4-(piperazin-1-yl)benzamide]
[1]
  IC50: 923 nM

## CC(C)(c1ccc(Br)cc1)c1csc(NC(=O)NCc2ccc(N3CCC(C(N)=O)CC3)cc2)n1 [Example A006, 1-(4-((3-(4-(2-(4-bromophenyl)propan-2-yl)thiazol-2-yl)ureido)methyl)phenyl) piperidine-4-carboxamide]
  IC50: 104 nM

## CC1CNCCN1c1ccc(CNC(=O)Nc2nc(C(C)(C)c3ccc(Br)cc3)cs2)cc1 (centres unmarked) [Example A029, 1-(4-(2-(4-bromophenyl)propan-2-yl)thiazol-2-yl)-3-(4-(2-methylpiperazin-1-yl)benzyl)urea]
  IC50: 73 nM

## COc1ccc(C(C)(C)c2csc(NC(=O)NCc3cccc(N4CCNCC4)n3)n2)cc1 [Example A043, 1-(4-(2-(4-methoxyphenyl)propan-2-yl)thiazol-2-yl)-3-((6-(piperazin-1-yl)pyridin-2-yl)methyl)urea]
  IC50: 165 nM

## CC(C)(c1ccc(Br)cn1)c1csc(NC(=O)NCc2ccc(N3CCNCC3)c(F)c2)n1 [Example A057, 1-(4-(2-(5-bromopyridin-2-yl)propan-2-yl)thiazol-2-yl)-3-(3-fluoro-4-(piperazin-1-yl)benzyl)urea]
  IC50: 246 nM

## CCOc1ccc(C(C)(C)c2csc(NC(=O)NCc3ccc(N4CCNCC4)cc3)n2)cc1 [Example A059, 1-(4-(2-(4-ethoxyphenyl)propan-2-yl)thiazol-2-yl)-3-(4-(piperazin-1-yl)benzyl)urea]
  IC50: 269 nM

## CC(C)(c1ccc(Cl)cc1)c1csc(NC(=O)NCc2cnc(N3CCC(N)C3)nc2)n1 (centres unmarked) [Example A068, 1-((2-(3-aminopyrrolidin-1-yl)pyrimidin-5-yl)methyl)-3-(4-(2-(4-chlorophenyl)propan-2-yl)thiazol-2-yl)urea]
  IC50: 269 nM

## COc1ccc(C(C)(C)c2csc(NC(=O)NCc3ccc(N4CCC(O)C4)cc3)n2)cc1 (centres unmarked) [Example A069, 1-(4-(3-hydroxypyrrolidin-1-yl)benzyl)-3-(4-(2-(4-methoxyphenyl)propan-2-yl)thiazol-2-yl)urea]
  IC50: 269 nM

## COc1ccc(C(C)(C)c2csc(NC(=O)NCCCC(=O)NC3CCNCC3)n2)cc1 [Example A071, 4-(3-(4-(2-(4-methoxyphenyl)propan-2-yl)thiazol-2-yl)ureido)-N-(piperidin-4-yl)butanamide]
  IC50: 64 nM

## COc1ccc(C(C)(C)c2csc(NC(=O)NCC(=O)CO)n2)cc1 [Example A074, 1-(3-hydroxy-2-oxopropyl)-3-(4-(2-(4-methoxyphenyl)propan-2-yl)thiazol-2-yl)urea]
  IC50: 61 nM

## CC(C)(c1ccc(Br)cc1)c1csc(NC(=O)NCc2cnc(N3CCC(N)C3)nc2)n1 (centres unmarked) [Example A078, 1-((2-(3-aminopyrrolidin-1-yl)pyrimidin-5-yl)methyl)-3-(4-(2-(4-bromophenyl)propan-2-yl)thiazol-2-yl)urea]
  IC50: 8 nM

## Cc1nc(CNC(=O)Nc2nc(C(C)(C)c3ccc(Br)cc3)cs2)cc(N2CCNCC2)n1 [Example A095, 1-(4-(2-(4-bromophenyl)propan-2-yl)thiazol-2-yl)-3-((2-methyl-6-(piperazin-1-yl)pyrimidin-4-yl)methyl)urea]
  IC50: 32 nM

## COc1ccc(CNC(=O)Nc2nc(C(C)(C)c3ccc(Br)cc3)cs2)cc1F [Example A107, 1-(4-(2-(4-bromophenyl)propan-2-yl)thiazol-2-yl)-3-(3-fluoro-4-methoxybenzyl)urea]
  IC50: 216 nM

## COc1ccc(C(C)(C)c2csc(NC(=O)NCc3ccc(NCCO)cc3)n2)cc1 [Example A109, 1-(4-((2-hydroxyethyl)amino)ben-zyl)-3-(4-(2-(4-methoxyphenyl)propan-2-yl)thiazol-2-yl)urea]
  IC50: 146 nM

## CC(C)(c1ccc(Br)cc1)c1csc(NC(=O)NCc2cnc(N3CCNC(=O)C3)c(F)c2)n1 [Example A112, 1-(4-(2-(4-bromophenyl)propan-2-yl)thiazol-2-yl)-3-((5-fluoro-6-(3-oxopiperazin-1-yl)pyridin-3-yl)methyl)urea]
  IC50: 334 nM

## CC(C)(c1ccc(Br)cc1)c1csc(NC(=O)NCc2cnc(N3CCNC(=O)C3)nc2)n1 [Example A113, 1-(4-(2-(4-bromophenyl)propan-2-yl)thiazol-2-yl)-3-((2-(3-oxopiperazin-1-yl)pyrimidin-5-yl)methyl)urea]
  IC50: 126 nM

## COc1ccc(C(C)(C)c2csc(NC(=O)NCCCC(N)=O)n2)cc1 [Example A114, 4-(3-(4-(2-(4-methoxyphenyl)propan-2-yl)thiazol-2-yl)ureido)butanamide]
  IC50: 260 nM

## CNC(=O)Nc1nc(C(C)(C)c2ccc(OC)cc2)cs1 [Example A143, 1-(4-(2-(4-methoxyphenyl)propan-2-yl)thiazol-2-yl)-3-methylurea]
  IC50: 53 nM

## O=C(NCc1cnc(N2CCNCC2)nc1)Nc1nc(C2(c3ccc(Br)cc3)CCCC2)cs1 [Example A180, 1-(4-(1-(4-bromophenyl)cyclopent-yl)thiazol-2-yl)-3-((2-(piperazin-1-yl)pyrimidin-5-yl)methyl)urea]
  IC50: 45 nM

## COc1ccc(C(C)(C)c2csc(NC(=O)NCc3ccc(N4CCC(N)C4)cc3)n2)cc1 (centres unmarked) [Example A184, 1-(4-(3-aminopyrrolidin-1-yl)benzyl)-3-(4-(2-(4-methoxyphenyl)propan-2-yl)thiazol-2-yl)urea]
  IC50: 242 nM

## COc1ccc(C(C)(C)c2csc(NC(=O)NCc3ccc(N4CCNCC4)c(C(=O)N(C)C)c3)n2)cc1 [Example A185, 5-((3-(4-(2-(4-methoxyphenyl)propan-2-yl)thiazol-2-yl)ureido)methyl)-N,N-dimethyl-2-(piperazin-1-yl)benzamide]
  IC50: 56 nM
